Data set [1] relates to Staphylococcus aureus ATCC 25923. It is filed as cell-based. The note with it: ATCC 25923, 2 h. As for the experimental part: (§1) The MIC assays were performed as previously described ([43]). Briefly, peptides were plated in a 2-fold dilution series (50 μL/well) of Mueller-Hinton broth (MHB) in Costar 96-well cell culture plates (Corning, NY, USA). Three repeats were set for each concentration. E. coli ATCC 25922, A. hydrophila ATCC 7966, P. aeruginosa PAO1, P. aeruginosa FRD1, S. aureus ATCC 25923, S. agalactiae ATCC 13813, S. pneumoniae ATCC 49619, methicillin-resistant S. aureus ATCC 43300, and methicillin-resistant S. aureus USA300 were cultured in Luria-Bertani (LB) medium, while K. pneumoniae CMCC46117 was cultured in tryptic soy broth (TSB) medium. Incubation was done at 37°C and 150 × g for 12 h. Bacteria were transferred to fresh MHB at a ratio of 1% (vol/vol) and incubated to reach a logarithmic growth phase. Then, 50 μL of a bacterial suspension at 4 × 10^6 CFU/mL was added to each well. […]

Data set [2] has as its system Klebsiella pneumoniae CMCC46117. It is filed as cell-based. The note with it: CMCC46117, 2 h. The method, then:
as §1

Data set [3] deals with Aeromonas hydrophila ATCC 7966. It is filed as cell-based. The note with it: ATCC 7966, 2 h. The method, then:
as §1

The test system of data set [4] is Escherichia coli ATCC 25922. It counts as cell-based. As to conditions: ATCC 25922, 2 h. The method, then:
as §1

The subject of data set [5] is Pseudomonas aeruginosa PAO1. It is filed as cell-based. As to conditions: PAO1, 2 h. The method, then: as §1
Data set [6] relates to Streptococcus agalactiae ATCC 13813. It counts as cell-based. The note with it: ATCC 13813, 2 h. The method, then:
as §1

Data set [7] concerns Streptococcus pneumoniae ATCC 49619. It counts as cell-based. As to conditions: ATCC 49619, 2 h. As for the experimental part:
as §1

The conditions of data set [8]: data not shown.
A further data set deals with P. aeruginosa FRD1. It is filed as cell-based, Pseudomonas aeruginosa. The note with it: FRD1, 2 h. As for the experimental part: as §1
A further data set has as its system E. coli ATCC 25922. The data set can be described thus: SYTOX green membrane permeability assay. It counts as cell-based, Escherichia coli. As to conditions: E. coli ATCC 25922, 5 μM SYTOX green, read every 1 min. As for the experimental part:
The SYTOX green staining assay was performed to assess peptide-associated membrane damage ([47], [52]). E. coli ATCC 25922 and S. aureus ATCC 25923 cells in the mid-logarithmic phase were collected, washed thrice, and resuspended (5 × 10^7 CFU/mL) in buffer B (10 mM Tris-HCl, pH 7.4, at 25°C). The bacterial suspensions were mixed with 5 μM SYTOX green and incubated for 15 min at room temperature in the dark. Then, the mixtures were added to black, clear-bottom 96-well plates at a density of 100 μL/well. After peptide addition, SYTOX green uptake was monitored using an EnSpire multimode plate reader (PerkinElmer, Singapore) with an excitation wavelength of 485 nm and an emission wavelength of 520 nm. Each measurement interval was 1 min, totaling 30 to 60 times. Melittin was used as the positive control, while bovine serum albumin (BSA) was the negative control.

Data set [9] deals with Methicillin-resistant S. aureus ATCC 43300. It is filed as cell-based, Staphylococcus aureus. As to conditions: ATCC 43300, 2 h. As for the experimental part:
as §1

Data set [10] has as its system Methicillin-resistant S. aureus USA300. It counts as cell-based, Staphylococcus aureus. The note with it: USA300, 2 h. As for the experimental part: as §1
The subject of data set [11] is methicillin-resistant S. aureus standard strain USA300. The experiment in a line: Neutropenic mouse thigh infection model. It counts as in vivo. The note with it: neutropenic BALB/c mice, 300 μg i.p. at 2 h postinfection. As for the experimental part:
Female BALB/c mice were used to construct a neutropenic murine thigh infection model as previously published ([48][–][50]). Briefly, mice (n = 9/group) were rendered neutropenic by consecutive intraperitoneal injections of 150 and 100 mg/kg of body weight cyclophosphamide at 4 and 1 day before bacterial injection ([51]). An S. aureus USA300 inoculum (~1.5 × 10^6 CFU/mL) was prepared by diluting logarithmic phase bacteria with fresh MHB. Each mouse was infected by intramuscular injection of 0.1 mL of the inoculum (~1.5 × 10^5 CFU) into the right thigh muscles. At 2 h postinfection, 0.1 mL of lcCCL28-25 peptide (300 μg) or vancomycin hydrochloride (300 μg, 15 mg/kg) was administered by intraperitoneal injection. The control group was injected with an equal volume of PBS. Untreated control mice were sacrificed at the start of treatment to establish the baseline bacterial burden. Mice in the three treatment groups (PBS, vancomycin, and lcCCL28-25) were sacrificed at 48 h postinfection. Their right thighs were aseptically harvested, placed in sterile saline and homogenized using a Bioprep-6 homogenizer (Allsheng, Hangzhou, China). After being serially diluted to 1:10 in sterile saline, 100-μL amounts of tissue suspensions at various concentrations were plated on LB agar to determine bacterial counts after incubation at 37°C for 24 h.

Data set [12] deals with P. aeruginosa FRD1 biofilm. The data set can be described thus: Biofilm inhibition assay (crystal violet). It is filed as cell-based, Pseudomonas aeruginosa. The note with it: P. aeruginosa FRD1, 6.25 μg/mL (0.5× MIC), 37°C 24 h, triplicate. As for the experimental part: In vitro static biofilm models have been reported in many studies ([45][–][47]). A Pseudomonas aeruginosa mucoid strain, FRD1, isolated from a cystic fibrosis patient, was used for the biofilm inhibition and eradication assay. The FRD1 strain was shock cultured to logarithmic growth stage at 37°C and 150 × g. After cleaning using PBS and centrifuging thrice, the bacteria were resuspended in MHB medium (with 0.2% glucose) and gradient diluted to an OD600 value of ~0.01.
For the biofilm inhibition assay, 90-μL amounts of bacterial suspensions and 10-μL amounts of increasing concentrations of the peptide were added to a 96-well plate and coincubated at 37°C for 24 h. Then, bacterial biofilms were quantified as follows: (i) planktonic bacteria were removed by washing thrice using PBS, (ii) biofilm bacteria were fixed in 100 μL of 4% paraformaldehyde at room temperature for 15 min and (iii) stained with 100 μL of 0.1% crystal violet for 30 min, (iv) the dye was removed, followed by washing twice using PBS, adding 200 μL of 95% ethanol to each well to dissolve the crystal violet, and finally, (v) absorbance was measured at 590 nm using an EnSpire multimode plate reader (PerkinElmer, Singapore).

This note sets out measurements from publication PMC9241943, “LcCCL28-25, Derived from Piscine Chemokine, Exhibits Antimicrobial Activity against Gram-Negative and Gram-Positive Bacteria In Vitro and In Vivo” (Microbiology Spectrum, 2022).

Values after ≈ are worked out from the molar mass of the structure shown. Structures can show the parent of a compound that is named as a salt. Residues, ends and D or L forms follow the SMILES beside them.

A word on the MIC: it is the smallest concentration in the dilution series that meets the test's criterion for growth inhibition. Low readings indicate greater potency, high ones weaker potency. For `CSCC[C@H](NC(=O)[C@H](CCCNC(=N)N)NC(=O)[C@H](CCCCN)NC(=O)[C@H](CC(C)C)NC(=O)[C@H](CCCCN)NC(=O)[C@H](CCCNC(=N)N)NC(=O)[C@H](CCCCN)NC(=O)[C@@H](NC(=O)[C@H](CCCCN)NC(=O)[C@@H]1CCCN1C(=O)[C@H](Cc1c[nH]cn1)NC(=O)[C@H](C)N)C(C)C)C(=O)N[C@@H](CCC(N)=O)C(=O)N[C@@H](CCCNC(=N)N)C(=O)N[C@@H](CCCCN)C(=O)N[C@@H](CCCCN)C(=O)N[C@@H](CC(=O)O)C(=O)NCC(=O)N[C@@H](CCCCN)C(=O)N[C@@H](CCC(N)=O)C(=O)N[C@@H](CCCCN)C(=O)N[C@@H](CCCNC(=N)N)C(=O)N[C@@H](Cc1c[nH]cn1)C(=O)O` [omCCL28-like-23] (H-AHPKVKRKLKRMQRKKDGKQKRH-OH; N-terminus and C-terminus assumed), the MIC in data set [1] is 12.50 µg/mL (≈ 4.34 µM); in [2], above 50.00 µg/mL; in data set [3], above 50.00 µg/mL; in data set [4], 12.50 µg/mL (≈ 4.34 µM); in data set [5] it was 25.00 µg/mL (≈ 8.67 µM); in [6], 12.50 µg/mL (≈ 4.34 µM). In addition, the minimal inhibitory concentration (MIC) came out at 25.00 µg/mL (≈ 8.67 µM) in [7], 25.00 µg/mL (≈ 8.67 µM) in the data set with P. aeruginosa FRD1, 25.00 µg/mL (≈ 8.67 µM) in data set [9] and 12.50 µg/mL (≈ 4.34 µM) in data set [10]. Moreover, in data set [8], the “solubility in 50% TFE solution” value is “insoluble”. Besides, the “SYTOX green fluorescence intensity” value in the data set on E. coli ATCC 25922 was “increased rapidly within 20 min”.
Take `CN[C@H](CC(C)C)C(=O)N[C@H]1C(=O)N[C@@H](CC(N)=O)C(=O)N[C@H]2C(=O)N[C@H]3C(=O)N[C@H](C(=O)N[C@H](C(=O)O)c4cc(O)cc(O)c4-c4cc3ccc4O)[C@H](O)c3ccc(c(Cl)c3)Oc3cc2cc(c3O[C@@H]2O[C@H](CO)[C@@H](O)[C@H](O)[C@H]2O[C@H]2C[C@](C)(N)[C@H](O)[C@H](C)O2)Oc2ccc(cc2Cl)[C@H]1O` [vancomycin, vancomycin hydrochloride, reference compound]: the “reduction in average bacterial load in thighs versus control group” value in data set [11] (S. aureus USA300 i.m., 48 h postinfection) worked out at 1.30 log10 CFU/g. In addition, the “mice that died after 48 h of infection” value in data set [11] (n = 9/group, three died in PBS group) is “none”.
Consider `CSCC[C@H](NC(=O)[C@H](CCCNC(=N)N)NC(=O)[C@H](CCCCN)NC(=O)[C@H](CCSC)NC(=O)[C@H](CC(C)C)NC(=O)[C@H](CCCCN)NC(=O)[C@H](CCC(N)=O)NC(=O)[C@H](CC(C)C)NC(=O)[C@H](Cc1ccccc1)NC(=O)[C@H](CCC(N)=O)NC(=O)[C@H](CCC(=O)O)NC(=O)[C@H](CCSC)NC(=O)[C@H](CCCCN)NC(=O)[C@@H]1CCCN1C(=O)[C@@H](NC(=O)[C@H](C)N)[C@@H](C)O)C(=O)N[C@@H](C)C(=O)N[C@@H](CCCNC(=N)N)C(=O)N[C@@H](CC(C)C)C(=O)N[C@@H](CCCCN)C(=O)N[C@@H](C)C(=O)N[C@@H](CO)C(=O)N[C@@H](C)C(=O)N[C@H](C(=O)O)C(C)C` [drCCL27b-24] (H-ATPKMEQFLQKLMKRMARLKASAV-OH; N-terminus and C-terminus assumed), for which the MIC in [1] is 25.00 µg/mL (≈ 9 µM); in data set [2], above 50.00 µg/mL; in [3], above 50.00 µg/mL; in [4], 25.00 µg/mL (≈ 9 µM); in [5], 25.00 µg/mL (≈ 9 µM); in data set [6], 25.00 µg/mL (≈ 9 µM). In addition, the MIC (in [7]; against P. aeruginosa FRD1; in [9]; in data set [10]) was 25.00 µg/mL (≈ 9 µM) each time. For the same compound, the “SYTOX green fluorescence intensity” value with E. coli ATCC 25922 is reported as “fluorescence trends similar to the trends in E. coli cells treated with lcCCL28-25”.
As for `CC[C@H](C)[C@H](NC(=O)[C@H](CCC(N)=O)NC(=O)[C@H](CCSC)NC(=O)[C@H](C)NC(=O)[C@@H](NC(=O)CNC(=O)[C@H](CC(C)C)NC(=O)[C@@H](NC(=O)[C@H](CCCCN)NC(=O)[C@H](CCCCN)NC(=O)[C@@H](NC(=O)[C@H](CCCNC(=N)N)NC(=O)[C@@H]1CCCN1C(=O)[C@H](CC(=O)O)NC(=O)[C@H](C)N)C(C)C)C(C)C)C(C)C)C(=O)N[C@@H](CCCNC(=N)N)C(=O)N[C@@H](CCCCN)C(=O)N[C@@H](C)C(=O)N[C@@H](CCC(N)=O)C(=O)N[C@@H](CC(C)C)C(=O)N[C@@H](CCSC)C(=O)N[C@@H](CCCNC(=N)N)C(=O)N[C@@H](CCC(=O)O)C(=O)N[C@@H](CCCCN)C(=O)N[C@@H](CC(C)C)C(=O)N[C@@H](CC(N)=O)C(=O)N[C@@H](CO)C(=O)N[C@H](C(=O)N[C@@H](CCSC)C(=O)N[C@@H](CCCNC(=N)N)C(=O)N[C@@H](CCCNC(=N)N)C(=O)O)[C@@H](C)CC` [omCK11-31] (H-ADPRVKKVLGVAMQIRKAQLMREKLNSIMRR-OH; N-terminus and C-terminus assumed), the MIC in [1] was 12.50 µg/mL (≈ 3.44 µM); in [2] it was 25.00 µg/mL (≈ 6.87 µM); in data set [3], above 50.00 µg/mL; in data set [4] it was 12.50 µg/mL (≈ 3.44 µM); in data set [5] it was 25.00 µg/mL (≈ 6.87 µM); in data set [6], 12.50 µg/mL (≈ 3.44 µM). Also, the MIC (in data set [7]; with P. aeruginosa FRD1; in data set [9]; in data set [10]) was 12.50 µg/mL (≈ 3.44 µM) in each case. In addition, in the data set with E. coli ATCC 25922, the “SYTOX green fluorescence intensity” value is given as “fluorescence trends similar to the trends in E. coli cells treated with lcCCL28-25”. Further, the “reduction of biofilm formation” value in [12] is given as ~ 45%.
